Source: US20180065968A1, “NEW SUBSTITUTED TRIAZOLOPYRIMIDINES AS ANTI-MALARIAL AGENTS” (BOARD OF REGENTS OF THE UNIVERSITY OF TEXAS SYSTEM, priority 2015, published 2018)
Values after ≈ are worked out from the molar mass of the structure shown. Where two headings read alike, the source gives them in different places.

Key:
[1] = system: P. falciparum FC27 lab lines; assay: Ex vivo schizont maturation assay, lab line; type: cell-based; settings: Plasmodium falciparum, read-out: P. falciparum FC27 lab lines IC50
Procedure: (§1) To assess comparative activity between P. falciparum and P. vivax strains compounds were tested in an ex vivo parasite assay using Plasmodium isolates from patients who visited clinics in Timika (Papua, Indonesia). Parasites in this region are resistant to standard anti-malarials such as chloroquine. P. vivax can not be cultivated in vitro so the ex vivo assay is the only method to evaluate drug sensitivity. Patients with parasitemia between 2000 and 80,000 ul^−1 were eligible for recruitment into the study. Blood was collected by venipuncture, host white blood cells were removed and packed infected red blood cells were used for the ex vivo studies. Drug susceptibility was measured as previously described (Russell et al., 2008, Antimicrobial Agents Chemother., 52, 1040-1045; Marfurt et al., 2011, Antimicrobial Agents Chemother., 55, 961-966; Marfurt et al., 2011, Antimicrobial Agents Chemother., 55, 4461-4464). Briefly two hundred μl of a 2% hematocrit blood mixture, consisting of RPMI 1640 medium plus 10% AB+ human serum (P. falciparum) or McCoy's 5A medium plus 20% AB+ human serum (P. vivax) was added to each well of pre-dosed drug plates containing serial 2-fold dilutions of the anti-malarial compound. A candle jar was used to mature parasites at 37° C. for 35-56 hrs. […] Thick blood films made from each well were stained with 5% Giemsa for 30 min and examined microscopically. The number of schizonts per 200 asexual stage parasites was determined and normalized to the control well. Data were analyzed by nonlinear regression (WinNonLn 4.1) to determine the IC50 using the inhibitory sigmoid Emax model.
(§2) Drug plate quality was assured by running schizont maturation assays (two independent experiments) with the chloroquine-resistant strain K1 and the chloroquine-sensitive strain FC27. For microscopy slide reading QC, two randomly selected drugs per isolate were read by a second microscopist. […] If necessary, discrepant results were resolved by a third reading by an expert microscopist.

[2] = system: P. vivax clinical isolates; assay: Ex vivo schizont maturation assay, clinical isolates; type: cell-based; settings: for IC50: Plasmodium vivax, read-out: P. vivax clinical isolates IC50
Procedure: as §1, §2

[3] = system: P. falciparum Pf3D70087/N9; assay: SCID mouse P. falciparum in vivo efficacy model; set-up: species or system P. falciparum in NOD-scid IL-2Rγnull (NSG) mice; settings: oral, starting day 3 post infection, NSG mice engrafted with human erythrocytes
Procedure: Briefly, NOD-scid IL-2Rγnull (NSG) mice (Jackson Laboratory, USA) (23-36 g) engrafted with human erythrocytes as described were infected with 20×10^6 P. falciparum Pf3D70087/N9) generated in GlaxoSmithkline Tres Cantos (Spain) by intravenous injection. Compounds were administered orally in vehicle (saline solution for Chloroquine; 0.5% w/v sodium carboxymethylcellulose, 0.5% v/v benzyl alcohol, 0.4% v/v Tween 80 in water for triazolopyrimidine analogs). Compounds were administered at target doses ranging from 0.5 to 75 mg/kg (free base equivalent) starting on day 3 post infection. Formulation concentrations were measured to obtain the actual doses administered. Parasitemia was monitored by flow cytometry and the effective dose (ED90) was calculated as described in Jimenez-Diaz, 2009, Antimicrobial agents and chemotherapy, 53, 4533-4536.

[4] = system: P. falciparum clinical isolates; assay: Ex vivo schizont maturation assay, clinical isolates; type: cell-based; settings: Plasmodium falciparum, read-out: P. falciparum clinical isolates IC50
Procedure: as §1, §2

rat DHODH = rat DHODH (Rattus norvegicus, UniProt Q63707); assay: Recombinant DHODH inhibition, DCIP dye-based assay; type: biochemical; settings: fourth value of cell, read-out: h/d/m/r DHODH (r)
Chain of rat DHODH (Q63707 whole entry, the tested form may be a part): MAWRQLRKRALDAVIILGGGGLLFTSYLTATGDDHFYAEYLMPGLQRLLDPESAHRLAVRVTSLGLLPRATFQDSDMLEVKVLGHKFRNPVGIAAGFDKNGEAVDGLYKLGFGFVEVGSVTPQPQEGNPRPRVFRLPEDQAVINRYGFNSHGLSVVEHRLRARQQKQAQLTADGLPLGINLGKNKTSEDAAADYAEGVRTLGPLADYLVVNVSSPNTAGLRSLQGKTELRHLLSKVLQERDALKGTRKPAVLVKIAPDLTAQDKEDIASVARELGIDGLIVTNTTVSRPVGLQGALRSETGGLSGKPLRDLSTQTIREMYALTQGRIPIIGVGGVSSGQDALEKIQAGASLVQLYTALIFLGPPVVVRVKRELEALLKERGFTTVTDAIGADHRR
Procedure: (§3) The compounds of the invention were also assessed for inhibitory activity against recombinant DHODH from the indicated species. Recombinant enzymes were produced and purified from E. coli as His6 fusion proteins and purified by Ni^+2-agarose chromatography as described.
(§4) Data were collected on a Synergy H1 hybrid plate reader in 96 well plate format at 28° C., using a final assay volume of 200 μl. Rate data (v) were converted to μmoles/min using the molar extinction coefficient for DCIP. Compounds were prepared in stock solutions of DMSO. An initial 100 mM stock was generated and this was used to prepare a 3 fold dilution series in DMSO. A 1:100 dilution of DMSO stock was made into assay buffer to generate the final concentration in the assay mix.
(§5) Assay Conditions: DHODH (ET=5-10 nM), substrates (0.2 mM L-dihydroorotate and 0.02 mM CoQD), DCIP (0.12 mM) and assay buffer (100 mM HEPES, pH 8.0, 150 mM NaCl, 10% Glycerol, 0.1%Triton) at 20° C. Concentration of compounds of the invention was varied in a 3-fold dilution series (0.01-100 uM). All data were collected in triplicate.
(§6) Fitting was performed in Graph Pad Prism to determine the IC50. Reported error represents the 95% confidence interval of the fit or the standard deviation of the mean.

human DHODH = human DHODH (Homo sapiens, UniProt Q02127); assay: Recombinant DHODH inhibition, DCIP dye-based assay; type: biochemical; settings: first value of cell, read-out: h/d/m/r DHODH (h)
Chain of human DHODH (Q02127 whole entry): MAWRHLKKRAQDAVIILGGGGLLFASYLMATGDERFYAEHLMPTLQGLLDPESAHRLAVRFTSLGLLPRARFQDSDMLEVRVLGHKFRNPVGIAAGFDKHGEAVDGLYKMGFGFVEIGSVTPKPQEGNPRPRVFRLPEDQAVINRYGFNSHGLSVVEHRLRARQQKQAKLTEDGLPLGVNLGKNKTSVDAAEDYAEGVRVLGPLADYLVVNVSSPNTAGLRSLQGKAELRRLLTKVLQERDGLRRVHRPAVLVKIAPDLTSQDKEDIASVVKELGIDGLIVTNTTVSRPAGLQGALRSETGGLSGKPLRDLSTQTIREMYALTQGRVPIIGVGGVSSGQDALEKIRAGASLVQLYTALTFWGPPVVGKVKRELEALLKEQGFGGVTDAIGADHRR
Procedure: as §3, §4, §5, §6

mouse DHODH = mouse DHODH (Mus musculus, UniProt O35435); assay: Recombinant DHODH inhibition, DCIP dye-based assay; type: biochemical; settings: third value of cell, read-out: h/d/m/r DHODH (m)
Chain of mouse DHODH (O35435 whole entry): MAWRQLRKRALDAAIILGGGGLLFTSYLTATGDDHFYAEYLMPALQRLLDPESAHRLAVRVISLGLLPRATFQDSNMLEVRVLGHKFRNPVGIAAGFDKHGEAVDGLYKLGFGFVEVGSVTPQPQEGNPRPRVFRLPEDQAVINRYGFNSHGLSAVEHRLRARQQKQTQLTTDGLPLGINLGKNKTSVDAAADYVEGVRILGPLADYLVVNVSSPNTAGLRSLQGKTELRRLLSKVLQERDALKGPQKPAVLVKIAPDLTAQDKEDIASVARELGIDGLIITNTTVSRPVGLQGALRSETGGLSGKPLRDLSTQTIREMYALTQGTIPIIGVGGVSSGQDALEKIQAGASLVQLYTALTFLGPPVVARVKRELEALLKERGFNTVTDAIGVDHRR
Procedure: as §3, §4, §5, §6

dog DHODH = dog DHODH (Canis lupus familiaris, UniProt A0A8I3MWX2); assay: Recombinant DHODH inhibition, DCIP dye-based assay; type: biochemical
Chain of dog DHODH (A0A8I3MWX2 1-406): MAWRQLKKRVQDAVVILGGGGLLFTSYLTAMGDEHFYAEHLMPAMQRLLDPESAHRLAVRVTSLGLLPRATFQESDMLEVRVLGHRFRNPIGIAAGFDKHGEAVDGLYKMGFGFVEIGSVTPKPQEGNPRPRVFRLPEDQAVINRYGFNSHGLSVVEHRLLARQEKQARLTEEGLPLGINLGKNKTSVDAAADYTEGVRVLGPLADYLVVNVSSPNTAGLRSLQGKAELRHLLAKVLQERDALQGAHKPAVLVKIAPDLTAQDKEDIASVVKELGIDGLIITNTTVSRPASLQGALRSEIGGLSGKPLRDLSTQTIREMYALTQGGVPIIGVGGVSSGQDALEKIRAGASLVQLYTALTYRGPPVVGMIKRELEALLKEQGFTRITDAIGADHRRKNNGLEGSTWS
Procedure: as §3, §4, §5, §6

pfDHODH = target: T1, pfDHODH (Plasmodium falciparum, UniProt Q08210); assay: biochemical
T1 sequence (Q08210 24-569): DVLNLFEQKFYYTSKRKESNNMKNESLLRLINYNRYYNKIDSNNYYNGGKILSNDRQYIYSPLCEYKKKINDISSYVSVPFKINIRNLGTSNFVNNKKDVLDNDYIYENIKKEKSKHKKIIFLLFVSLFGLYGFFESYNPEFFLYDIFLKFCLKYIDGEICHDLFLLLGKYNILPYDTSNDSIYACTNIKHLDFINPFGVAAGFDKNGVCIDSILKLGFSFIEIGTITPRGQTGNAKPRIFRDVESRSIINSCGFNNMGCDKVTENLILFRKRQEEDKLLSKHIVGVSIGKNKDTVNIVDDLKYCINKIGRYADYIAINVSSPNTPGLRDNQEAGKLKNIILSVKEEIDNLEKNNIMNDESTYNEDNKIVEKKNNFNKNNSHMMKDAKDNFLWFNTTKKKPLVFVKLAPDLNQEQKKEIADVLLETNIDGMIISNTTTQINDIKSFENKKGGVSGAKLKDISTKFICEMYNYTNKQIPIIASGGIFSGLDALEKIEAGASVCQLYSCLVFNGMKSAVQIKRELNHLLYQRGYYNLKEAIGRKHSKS
Procedure: as §3, §4, §5, §6

P. falciparum 3D7 = P. falciparum 3D7 growth inhibition assay (SYBR green); type: cell-based; settings: Plasmodium falciparum, 72 h incubation, 50% growth inhibition, read-out: Pf 3D7 EC50
Procedure: The ability of triazolopyrimidine derivatives according to the invention to kill P. falciparum parasites and/or to inhibit its proliferation is assayed through their ability to inhibit Plasmodium falciparum growth. The growth inhibition assay is as follows: P. falciparum 3D7 cells were grown in Gibco-Invitrogen RPMI-1640 supplemented with 2% (w/v) red blood cells (RBCs) and either 20% human type A+ plasma (Desjardins et al., 1979, Antimicrob Agents Chemother. 16, 710-718) or with Gibco-Invitrogen 0.5% Albumax I (Coteron et al., 2011, J. Med. Chem., 54, 5540-5561). Serial dilutions of compound stocks were prepared in 100% DMSO at 200× the final concentration, followed by generation of 20× stocks in media. Cell growth was monitored by the SYBR green method as described (Deng, et al., 2014. J. Med. Chem., 57, 5381-539). Parasites (0.19 ml of 0.5% parasitemia, 0.5% HCT) were plated into 96-well microtiter plates containing 10 μL compound or DMSO control (final DMSO concentration of 0.5%). Non-parasitized RBCs (0.5% HCT) were used as a control to determine background fluorescence. After 72 h of incubation parasitized RBCs were quantitated by the SYBR Green method. 2× SYBR Green I solution (20 μL) in 1× PBS was mixed with 20 μL parasites in 96-well plates, incubated for 20 min, and after which 160 μL of 1× PBS was added. Fluorescence was detected using a BD Biosciences Acurri C6 flow cytometer and events recorded within gates that encompassed all asexual growth stages of the P. falciparum intraerythrocytic life cycle. A minimum 50,000 total events were recorded per well. Background events determined from non-parasitized RBC controls were subtracted from final counts.

[5] = Aqueous kinetic solubility by nephelometry; type: physicochemical; settings: pH 6.5 phosphate buffer, 1% DMSO; for solubility kinetic: aqueous buffer, kinetic from dmso stock, read-out: Kinetic Solubility pH6.5
Procedure: Aqueous solubility was estimated by nephelometry. Concentrated stock solutions were prepared in DMSO and diluted into either pH 6.5 phosphate buffer or 0.01 M HCl (approximately pH 2.0), with the final DMSO concentration being 1%. Samples were then analyzed by nephelometry to determine the solubility range as described previously (Bevan, et al., 2000, Anal. Chem., 72, 1781-1787).

[6] = ex vivo schizont maturation, 35-56 hrs, FC27 chloroquine sensitive lab strain
[7] = dog DHODH, second value of cell, read-out: h/d/m/r DHODH (d)
[8] = recombinant enzyme, DCIP assay, IC50, read-out: PfDHODH
[9] = ex vivo schizont maturation, 35-56 hrs, isolates from Timika (Papua, Indonesia)

`C[C@H]1[C@H](OC(=O)CCC(=O)O)O[C@@H]2O[C@@]3(C)CC[C@H]4[C@H](C)CC[C@@H]1[C@@]24OO3` [Artesunate] showed an IC50 [1] of 3.6 to 11 nM and an IC50 [2] of 0.8 to 2.9 nM.
For `CCN(CC)CCCC(C)Nc1ccnc2cc(Cl)ccc12` (stereo not drawn) [Chloroquine], the IC50 [1] was 23 to 32 nM, the ED90 [3] was 4.3 mg/kg per day and the IC50 [4] was 86 to 101 nM. For the same compound, the IC50 [2] was 43 to 147 nM.
In the case of `Cc1cc(Nc2ccc(C(F)(F)F)nc2)n2nc(C(C)(F)F)nc2n1` [Compound (1), 2-(1,1-difluoroethyl)-5-methyl-N-(6-(trifluoromethyl)pyridin-3-yl)-[1,2,4]triazolo[1,5-a]pyrimidin-7-amine], the IC50 [1, 6] is reported as 292 nM, the IC50 (rat DHODH) is reported as 24000 nM and the IC50 (human DHODH) is reported as over 100000 nM. It also gave an IC50 (mouse DHODH) of 54000 nM, an IC50 (dog DHODH; [7]) of 65000 nM and an ED90 [3] of 2.6 mg/kg per day. For the same compound, the IC50 (pfDHODH; [8]) was 30 nM, the EC50 (P. falciparum 3D7) was 11 nM and the solubility kinetic [5] was over 100 µg/mL. For the same compound, the IC50 [4, 9] was 151 nM, the IC50 [2, 9] was 175 nM and the “comparative activity between P. falciparum and P. vivax” value ([2]; ex vivo parasite assay) was “equivalent activity on both P. falciparum and P. vivax”.
With `Cc1nc2nc(C(C)(F)F)nn2c(Nc2ccc(C(F)(F)F)nc2)c1F` [Compound (2), 2-(1,1-difluoroethyl)-6-fluoro-5-methyl-N-(6-(trifluoromethyl)pyridin-3-yl)-[1,2,4]triazolo[1,5-a]pyrimidin-7-amine] the IC50 (rat DHODH) was 15700 nM, the IC50 (human DHODH) was 62000 nM and the IC50 (mouse DHODH) was 20000 nM. It also gave an IC50 (dog DHODH; [7]) of 9200 nM, an IC50 (pfDHODH; [8]) of 23 nM and an EC50 (P. falciparum 3D7) of 16 nM. It also gave a solubility kinetic [5] of over 100 µg/mL.
In the case of `Cc1cc(Nc2ccc(C(F)(F)F)nc2)n2nc(C(F)(F)F)nc2n1` [Compound (3), 5-methyl-2-(trifluoromethyl)-N-(6-(trifluoromethyl)pyridin-3-yl)-[1,2,4]triazolo[1,5-a]pyrimidin-7-amine], the IC50 (rat DHODH) is reported as 8400 nM, the IC50 (human DHODH) is reported as over 100000 nM and the IC50 (mouse DHODH) is reported as 33000 nM. It also gave an IC50 (dog DHODH) of 39000 nM, an IC50 (pfDHODH; [8]) of 41 nM and an EC50 (P. falciparum 3D7) of 35 nM. For the same compound, the solubility kinetic [5] was 50 µg/mL (≈ 138 µM).
Work on `CCc1nc(N)nc(N)c1-c1ccc(Cl)cc1` [Pyrimethamine] yielded an ED90 [3] of 0.9 mg/kg per day.
`Cc1cc(Nc2ccc(C(F)(F)F)nc2)n2nc(C(C)(F)F)nc2n1` [Reference 1] gave an IC50 (rat DHODH) of 4400 nM, an IC50 (human DHODH) of 58000 nM and an IC50 (mouse DHODH) of 74000 nM. For the same compound, the IC50 (dog DHODH; [7]) was 21000 nM, the IC50 (pfDHODH; [8]) was 50 nM and the “Kinetic Solubility pH6.5” value [5] was 6.3 μg/ml.
`Cc1cc(Nc2ccc(C(F)(F)F)cn2)n2nc(C(F)(F)F)nc2n1` [Reference 2] showed an IC50 (human DHODH) of over 50000 nM, an IC50 (pfDHODH; [8]) of 37 nM and an EC50 (P. falciparum 3D7) of 70 nM. The solubility kinetic [5] was 1.6 µg/mL (≈ 4.42 µM).
In the case of `Cc1cc(Nc2ccc(C(F)(F)F)cc2)n2nc(C(C)(F)F)nc2n1` [Reference 3], the IC50 (rat DHODH) is reported as 7200 nM, the IC50 (human DHODH) is reported as over 100000 nM and the IC50 (mouse DHODH) is reported as 24000 nM. It also gave an IC50 (dog DHODH; [7]) of over 100000 nM, an ED90 [3] of 26 mg/kg per day and an IC50 (pfDHODH) of 31 nM. The EC50 (P. falciparum 3D7) was 8.3 nM and the solubility kinetic [5] was 50 µg/mL (≈ 140 µM).
With `Cc1cc(Nc2ccc(S(F)(F)(F)(F)F)cc2)n2nc(C(C)(F)F)nc2n1` [Reference 4] the IC50 [1, 6] was 177 nM, the ED90 [3] was 8.1 mg/kg per day and the EC50 (P. falciparum 3D7) was 5 nM. It also gave a solubility kinetic [5] of 25 µg/mL (≈ 60.2 µM), an IC50 [4, 9] of 190 nM and an IC50 [2, 9] of 920 nM.
